Columns and labels:
Settings in all cases: 72 h
[1] = tested on: CAL-85-1
How it was run: (§1)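 Each 384-well plate was pre-loaded with compound dissolved in 5 µl medium, received breast cancer cells in 20 µl suspension, and was incubated 72 h. A 2.5 µl addition of CellTiter-Blue for 2 h at 37 °C was followed by a fluorescence read at 560/590 nm. Data were normalised per plate to vehicle and a positive kill control and checked by Z'-factor. EC50 was fitted from the percent-inhibition dose-response curve, censored at the highest concentration, excluding rows with a drug sensitivity score of zero.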

[2] = tested on: DU-4475
How it was run: as §1

[3] = tested on: HDQ-P1
How it was run: as §1

[4] = tested on: MDA-MB-453
How it was run: as §1

[5] = tested on: BT-474
How it was run: as §1

[6] = tested on: MDA-MB-231
How it was run: as §1

[7] = tested on: MDA-MB-468
How it was run: as §1

[8] = tested on: MFM-223
How it was run: as §1

[9] = tested on: BT-549
How it was run: (§2)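 In this assay, breast cancer cell lines spent 72 h with compound at 5 concentrations in 10-fold steps over a compound-specific 10,000-fold range. The first readout was cell death by CellTox Green fluorescence, and the second was viability by CellTiter-Glo luminescence, each normalised per plate to 0.1 % DMSO and a positive kill control. EC50 came from the dose-response curves, censored at the top concentration.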

[10] = tested on: CAL-148
How it was run: as §2

[11] = tested on: CAL-85-1; remark: listed apart in the source
How it was run: as §2

[12] = tested on: HDQ-P1; remark: listed apart in the source
How it was run: as §2

[13] = tested on: MCF-10A
How it was run: as §2

[14] = tested on: MDA-MB-453; remark: listed apart in the source
How it was run: as §2

[15] = tested on: SK-BR-3
How it was run: as §2

[16] = tested on: Hs578T
How it was run: as §1

[17] = tested on: CAL-85-1; remark: listed apart in the source
Description: (§3)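 Drug sensitivity and resistance testing (DSRT) of breast cancer cell lines in 384-well plates, 5 concentrations in 10-fold dilutions over a compound-specific 10,000-fold range. After 72 h, cytotoxicity was read by CellTox Green fluorescence and viability by CellTiter-Glo luminescence (multiplexed), normalised to DMSO and benzethonium chloride controls. EC50 is the inflection point of the fitted dose-response curve (bottom asymptote free, so it can be relative for partial curves) and is censored at the highest tested concentration. Rows with DSS 0 (no meaningful response) were excluded.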

[18] = tested on: BT-474; remark: listed apart in the source
How it was run: as §2

[19] = tested on: CAL-51
How it was run: as §2

[20] = tested on: DU-4475; remark: listed apart in the source
How it was run: as §2

[21] = tested on: HCC1143
How it was run: as §2

[22] = tested on: HCC1937
How it was run: as §2

[23] = tested on: Hs578T; remark: listed apart in the source
How it was run: as §2

[24] = tested on: MDA-MB-231; remark: listed apart in the source
How it was run: as §2

[25] = tested on: MDA-MB-436
How it was run: as §2

[26] = tested on: MFM-223; remark: listed apart in the source
How it was run: as §2

[27] = tested on: BT-474; remark: listed apart in the source
Description: as §3

[28] = tested on: BT-549; remark: listed apart in the source
Description: as §3

[29] = tested on: CAL-148; remark: listed apart in the source
Description: as §3

[30] = tested on: CAL-51; remark: listed apart in the source
Description: as §3

[31] = tested on: HCC1937; remark: listed apart in the source
Description: as §3

[32] = tested on: MDA-MB-231; remark: listed apart in the source
Description: as §3

[33] = tested on: MDA-MB-468; remark: listed apart in the source
Description: as §3

[34] = tested on: HCC1599
How it was run: as §2

[35] = tested on: HCC1143; remark: listed apart in the source
How it was run: as §1

[36] = tested on: HCC1599; remark: listed apart in the source
How it was run: as §1

[37] = tested on: HDQ-P1; remark: listed apart in the source
Description: as §3

[38] = tested on: Hs578T; remark: listed apart in the source
Description: as §3

[39] = tested on: MCF-10A; remark: listed apart in the source
Description: as §3

[40] = tested on: MFM-223; remark: listed apart in the source
Description: as §3

SMILES	EC50, CellTiter-Blue viability [1]	EC50, CellTiter-Blue viability [2]	EC50, CellTiter-Blue viability [3]	EC50, CellTiter-Blue viability [4]	EC50, CellTiter-Blue viability [5]	EC50, CellTiter-Blue viability [6]	EC50, CellTiter-Blue viability [7]	EC50, CellTiter-Blue viability [8]	EC50, CellTiter-Glo [9]	EC50, CellTiter-Glo [10]	EC50, CellTiter-Glo [11]	EC50, CellTiter-Glo [12]	EC50, CellTiter-Glo [13]	EC50, CellTiter-Glo [14]	EC50, CellTiter-Glo [15]	EC50, CellTiter-Blue viability [16]	EC50, CellTox Green [17]	EC50, CellTiter-Glo [18]	EC50, CellTiter-Glo [19]	EC50, CellTiter-Glo [20]	EC50, CellTiter-Glo [21]	EC50, CellTiter-Glo [22]	EC50, CellTiter-Glo [23]	EC50, CellTiter-Glo [24]	EC50, CellTiter-Glo [25]	EC50, CellTiter-Glo [26]	EC50, CellTox Green [27]	EC50, CellTox Green [28]	EC50, CellTox Green [29]	EC50, CellTox Green [30]	EC50, CellTox Green [31]	EC50, CellTox Green [32]	EC50, CellTox Green [33]	EC50, CellTiter-Glo [34]	EC50, CellTiter-Blue viability [35]	EC50, CellTiter-Blue viability [36]	EC50, CellTox Green [37]	EC50, CellTox Green [38]	EC50, CellTox Green [39]	EC50, CellTox Green [40]
CN1CCC(COc2cnc(-c3cccc(Cn4nc(-c5cccc(C#N)c5)ccc4=O)c3)nc2)CC1	5.15 µM	5.89 µM	4.97 µM	3.64 µM	4.45 µM	2.06 µM	3.04 µM	6.27 µM																																
CN(C)C/C=C/C(=O)Nc1cc2c(Nc3ccc(F)c(Cl)c3)ncnc2cc1O[C@H]1CCOC1 [Afatinib]	0.147 µM		0.398 µM	0.0457 µM	0.0209 µM	2.01 µM	1.16 µM	3.74 µM	> 1 µM	0.0241 µM	0.0352 µM	0.00948 µM	0.00658 µM	0.0547 µM	0.0107 µM	4.26 µM	0.0197 µM																							
COc1cc(Nc2ncc3c(n2)-c2ccc(Cl)cc2C(c2c(F)cccc2OC)=NC3)ccc1C(=O)O [Alisertib]									0.177 µM	0.659 µM		8.41 µM						0.0761 µM	0.0764 µM	0.0246 µM	0.0416 µM	1.74 µM	0.0779 µM	0.99 µM	0.027 µM	0.615 µM	8.37 µM	0.756 µM	0.156 µM	0.0182 µM	7.46 µM	0.0148 µM	0.0155 µM							
CN1CC[C@H](c2c(O)cc(O)c3c(=O)cc(-c4ccccc4Cl)oc23)[C@H](O)C1 [Alvocidib]	0.153 µM	0.141 µM	0.163 µM	0.165 µM	0.278 µM	0.19 µM	0.278 µM	0.174 µM	0.294 µM	0.243 µM	0.372 µM	0.183 µM	0.368 µM	0.548 µM	0.218 µM	0.0936 µM	0.473 µM	0.183 µM	0.167 µM	0.282 µM	0.359 µM	0.357 µM	0.376 µM	0.242 µM	0.143 µM	0.335 µM	> 10 µM	1.01 µM		0.806 µM		0.135 µM		0.417 µM	0.127 µM	0.165 µM	0.167 µM	1.79 µM	0.42 µM	0.558 µM
Nc1nc(Cl)nc2c1ncn2[C@H]1C[C@H](O)[C@@H](CO)O1 [Cladribine]		0.879 µM				0.00912 µM			0.125 µM																							> 1 µM	0.0025 µM		> 1 µM					

From the supplement of paper PMC4862054
